Source: patent US4550186A, “Binuclear copper (II) carboxylates formed from amine-carboxyboranes” (Duke University, priority 1983, dated 1985)
Where two headings read alike, the source gives them in different places.

Legend:
[1] = tested on: Holtzman male rats; test: Plasma lipoprotein fractions; format: in vivo, rat; conditions: 14 days 10 mg/kg/day orally
Experimental: […] On day 14, blood was collected from the abdominal aorta. Serum was separated from whole blood by centrifugation at 3500 rpm. Aliquots (3 ml) were separated by density gradient ultracentrifugation according to the method of Hatch and Lees [Adv. Lipid Res., 6, 33 (1968)] and Havel et al [J. Clin. Invest., 34, 1395 (1955)] into the chylomicrons,very low density lipoproteins, high density lipoproteins and low density lipoproteins. Each of the fractions was analyzed for cholesterol, triglyceride, neutral lipids, phospholipids and protein levels.
Data are expressed in the Table 2-7 as percent of control ± the standard deviation. The probable significant level (P) between each test group and the control group was determined by the Student's "t" test.

[2] = biological target: T1, dihydrofolate reductase (Mus musculus, UniProt P00375); test: In vitro dihydrofolate reductase activity; format: biochemical; conditions: 0.25 to 1.0 mM
T1 sequence (P00375 1-187): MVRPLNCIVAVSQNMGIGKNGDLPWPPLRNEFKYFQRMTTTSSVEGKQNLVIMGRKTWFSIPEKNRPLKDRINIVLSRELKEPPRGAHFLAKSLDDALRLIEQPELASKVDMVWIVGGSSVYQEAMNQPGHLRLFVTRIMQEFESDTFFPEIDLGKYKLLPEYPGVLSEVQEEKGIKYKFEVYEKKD
Experimental: (§1) CF1 male mice (~30 g) were implanted with 2×10^6 Ehrlich ascites tumor cells, intraperitoneally on Day 0. Compound I was suspended by homogenation in 0.05% polysorbate.80-water and administered intraperitoneally at 10 and 20 mg/kg for 9 days to determine its effectiveness for inhibition of tumor growth. Mice were sacrificed on Day 10, and the ascites fluid was collected from the peritoneal cavity. The volume and ascrit (packed cell volume) were determined for each animal and the percent inhibition of tumor growth was calculated. For the metabolic studies, mice were treated on Days 8 and 9 with 10 mg/kg of Compound I, intraperitoneally. […]
(§2) Carbamyl phosphate synthetase activity was determined using the reaction medium of Kalman et al [Am. […] Citrulline formed from ornithine was measured at 490 nm by the method of Archibald [J. Biol. Chem., 156, 121 (1944)]. […] The ^14 CO2 generated in 15 min was trapped in 1M KOH and counted. Thymidylate synthetase activity was determined using a post-mitochondrial supernatant (9000 g×10 min) and 5 μCi of 5-^3 H-deoxyuridine monophosphate (14 Ci/mmol) according to the method of Kampf et al [ J. Med. Chem., 19, 903 (1976)]. ^14 C-Formate incorporation into purines was determined by the method of Spassova et al [Biochem. Pharmacol., 25, 923 (1976)] using 0.5 μCi of ^14 C-formic acid (52.0 mCi/mmol). […] The Rf value for xanthine monophosphate was scraped and counted. […]

[3] = tested on: aspartate transcarbamylase; test: In vivo aspartate transcarbamylase activity; design: species or system mouse
Experimental: as §1, §2

[4] = tested on: inosinic acid dehydrogenase; test: In vivo inosinic acid dehydrogenase activity; design: species or system mouse
Experimental: as §1, §2

[5] = tested on: Holtzman male rats; test: 3H-Cholesterol distribution in rats; format: in vivo, rat; conditions: for Orally administered 3H-Cholesterol: 14 days 10 mg/Kg/Day, Treated
Experimental: Holtzman male rats (~350 g) were administered the test agent for 14 days orally. On day 13, 10 μCi of ^3 H-cholesterol (40.7 mCi/mmol) was administered intraperitoneally in mice and orally in rats, and feces were collected for the next 24 hr. Twenty-four hours after cholesterol administration, the major organs were excised and samples of blood, chyme and urine were obtained. Homogenates (10%) were prepared of the tissues which were combusted and counted. Some tissue samples were plated on Whatman #1 filter paper, dried and digested for 24 hr in base at 40° C. and counted. Results were expressed as dpm/mg of wet tissue and dpm/per total organ.

[6] = 10 mg/kg/day I.P. on Days 8 and 9

## {Cu[(CH3)3 N.BH2 CO2 ]2.(CH3)3 N.BH2 COOH} [Compound I]
[1]; rat serum Chylomicrons
  Cholesterol: 88 ± 6 Percent Control
  Neutral Lipids: 67 ± 7 Percent Control
  Phospholipids: 96 ± 6 Percent Control
  Protein: 99 ± 7 Percent Control
  Triglyceride: 58 ± 5 Percent Control
[1]; rat serum HDL
  Cholesterol: 64 ± 5 Percent Control
  Neutral Lipids: 72 ± 8 Percent Control
  Phospholipids: 86 ± 7 Percent Control
  Protein: 108 ± 8 Percent Control
  Triglyceride: 31 ± 5 Percent Control
[1]; rat serum LDL
  Cholesterol: 68 ± 6 Percent Control
  Neutral Lipids: 78 ± 7 Percent Control
  Phospholipids: 105 ± 6 Percent Control
  Protein: 101 ± 6 Percent Control
  Triglyceride: 70 ± 6 Percent Control
[1]; rat serum VLDL
  Cholesterol: 32 ± 3 Percent Control
  Neutral Lipids: 62 ± 5 Percent Control
  Phospholipids: 100 ± 7 Percent Control
  Protein: 96 ± 7 Percent Control
  Triglyceride: 43 ± 4 Percent Control
[2]
  dihydrofolate reductase inhibition: not inhibited
[3]
  Aspartate carbamyl transferase activity suppressed: 11%
[3]; [6]
  Aspartate transcarbamylase activity: 89 ± 8 % Control
[4]
  Inosinic acid dehydrogenase activity: essentially not affected
[4]; [6]
  Inosinic acid dehydrogenase activity: 100 ± 9 % Control
[5]; rat Brain
  Orally administered 3H-Cholesterol: 15,783 DPM/Total Organ
[5]; rat Chyme
  Orally administered 3H-Cholesterol: 218,742 DPM/Total Organ
[5]; rat Feces
  Orally administered 3H-Cholesterol: 294,644 DPM/Total Organ
[5]; rat Heart
  Orally administered 3H-Cholesterol: 20,060 DPM/Total Organ
[5]; rat Kidney
  Orally administered 3H-Cholesterol: 565 DPM/Total Organ
[5]; rat Large Intestine
  Orally administered 3H-Cholesterol: 59,665 DPM/Total Organ
[5]; rat Liver
  Orally administered 3H-Cholesterol: 27,695 DPM/Total Organ
[5]; rat Lung
  Orally administered 3H-Cholesterol: 17,106 DPM/Total Organ
[5]; rat Small Intestine
  Orally administered 3H-Cholesterol: 16,514 DPM/Total Organ
[5]; rat Spleen
  Orally administered 3H-Cholesterol: 13,241 DPM/Total Organ
[5]; rat Stomach
  Orally administered 3H-Cholesterol: 33,901 DPM/Total Organ
[5]; rat brain
  3H-cholesterol reduced (dpm/organ vs control): 46%
[5]; rat chyme
  higher content of cholesterol: 113%
[5]; rat heart
  3H-cholesterol reduced (dpm/organ vs control): 18%
[5]; rat kidney
  3H-cholesterol reduced (dpm/organ vs control): 91%
[5]; rat large intestine
  higher content of cholesterol: 27%
[5]; rat liver
  3H-cholesterol reduced (dpm/organ vs control): 42%
[5]; rat small intestine
  higher content of cholesterol: 81%
[5]; rat stomach
  higher content of cholesterol: 198%
[5]; rat urine
  higher content of cholesterol: 336%
